The text below walks through data of article PMC6039563, “Functional Identification and Characterization of the Diuretic Hormone 31 (DH31) Signaling System in the Green Shore Crab, Carcinus maenas” (Frontiers in Neuroscience, 2018).

Ends that are not written are not given here.

In experiment [1] the target is T1, C. maenas DH31R (Carcinus maenas, UniProt A0A345BTT1).
T1 sequence (A0A345BTT1 1-442): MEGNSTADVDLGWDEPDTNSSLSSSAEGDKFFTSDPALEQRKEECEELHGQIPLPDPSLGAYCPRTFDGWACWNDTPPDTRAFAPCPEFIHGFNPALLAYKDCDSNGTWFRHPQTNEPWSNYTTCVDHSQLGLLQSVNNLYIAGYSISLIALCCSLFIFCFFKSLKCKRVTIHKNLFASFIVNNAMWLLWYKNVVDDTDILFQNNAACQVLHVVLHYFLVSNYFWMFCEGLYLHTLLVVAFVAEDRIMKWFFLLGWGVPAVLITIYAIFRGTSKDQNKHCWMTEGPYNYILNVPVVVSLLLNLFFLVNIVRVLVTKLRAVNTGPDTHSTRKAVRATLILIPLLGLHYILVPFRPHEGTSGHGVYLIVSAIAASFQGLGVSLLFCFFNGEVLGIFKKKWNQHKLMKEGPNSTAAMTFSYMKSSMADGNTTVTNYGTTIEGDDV
Kind of experiment: aequorin luminescence Ca2+ mobilization assay, CHO-K1-Aeq-Gα16 cells transiently expressing DH31R. It is filed as cell-based. The note with it: for EC50: read-out: EC50 of luminescence response; for luminescence response / activation of DH31R: DH31R-transfected CHO-K1-Aeq cells, tested up to micromolar levels. How it is done: (§1) Cells were then diluted 10-fold prior to assay.
Amino acid sequences are shown in Supplementary Table S2. […] Receptor responses were normalized against total Ca^2+ luminescence.

Experiment [2] has as its target T1, C. maenas DH31R. Kind of experiment: cell-based. The method, then: as §1
Amino acid sequences are shown in Supplementary Table S2. […] Ca^2+ evoked luminescence was recorded for 40 s, followed by cell lysis (injection of 0.3% Triton-X 100 in BSA medium), and light emission recorded for a further 10 s. […] Receptor responses were normalized against total Ca^2+ luminescence.

Setting [3] is: CHO-K1-Aeq-Gα16 cells transiently expressing DH31R, simultaneously performed experiments with three DH31s (Figure 3 main panel), means of n = 4.

As for “GLDLGLGRGFSGSQAAKHLMGLAAANFAGGP-NH2 [Tribolium castaneum DH31]”, the EC50 (usually the concentration at which the effect is half-maximal) on C. maenas DH31R [1] (setting [3]) was roughly 30 nM.

Consider “GLDLGLSRGFSGSQAAKHLMGLAAANYAGGP-NH2 [Diploptera punctata DH31]”, for which the EC50 at C. maenas DH31R [1] (setting [3]) is roughly 30 nM. For “GLDMGLGRGFSGSQAAKHLMGLAAANYAGGP-NH2 [C. maenas DH31]”, the EC50 was roughly 15 nM at C. maenas DH31R [2]; roughly 15 nM at C. maenas DH31R [1] (CHO-K1-Aeq-Gα16 cells transfected with DH31R, Figure 3 inset, independent set of transfections, means of N = 4); roughly 30 nM at C. maenas DH31R [1] (setting [3]). On to “MQRPQGPSLSVANPIEVLRSRLLLEIARRRMKEQDASRVSKNRQYLQQIG [R. prolixus CRF-like DH, Rhodnius prolixus corticotropin releasing factor-like diuretic hormone (I. Orchard, Toronto)]”, for which the “luminescence response / activation of DH31R” value at C. maenas DH31R [1] is “No luminescence responses”. As for “NSELINSLGLPKVMNDA-NH2 [C. maenas PDH-1, C. maenas pigment dispersing hormone-1 (Liverpool University)]”, the “luminescence response / activation of DH31R” value at C. maenas DH31R [1] is reported as “No luminescence responses”; at C. maenas DH31R [1] (listed as PDH-1), “does not activate”.
